The results in this text go back to patent publication EP4548971A1, “1,4-BENZOTHIAZEPINES AND RELATED COMPOUNDS WITH CYCLOPROPANOL GROUPS AS MULTI-TARGETED DRUGS” (Georg-August-Universität Göttingen Stiftung Öffentlichen …, priority 2023, dated 2025).

One data set deals with T1, SERCA2a (Mus musculus, UniProt O55143).
T1 construct: host or cells: HL-1 cardiac cells
Nature of the data set: Caffeine-induced Ca2+ release assay on HL-1 cells. Details: key to SERCA2a HL-1 effect class: +++: a strong effect, comparable to or greater than that of a known compounds at a given concentration (25 µM in RyR2 R-CEPIA1er assay, 10 µM in caffeine assay and on microsomal membrane vesicles); ++: moderate effect; +: observable effect; -: no effect. It is filed as cell-based. The method, then:
HL-1 cardiac cells (SCC065, Merck KGaA, Darmstadt, Germany) were cultivated in Claycomb's Medium (51800C, Merck KGaA, Darmstadt, Germany), supplemented with Glutamax, 10% fetal bovine serum, 0.9% Penicillin/Streptomycin and 0.1 mM Noradrenaline (Merck KGaA, Darmstadt, Germany) on fibronectin/gelatin (Merck KGaA, Darmstadt, Germany) coated culture bottles or plates two days before plating.
HL-1 cardiac cells (50000 per well) were cultivated for 24 h in black-walled, clear-bottom 96-well micro-plates (Corning, Amsterdam, The Netherlands) covered with fibronectin/gelatin (Merck KGaA, Darmstadt, Germany) in a humidified incubator at 37 °C and 5% CO2.
Changes in Ca^2+ concentration were measured on a multiwell plate reader TECAN Spark 20M using FLIPR 6 Calcium Assay Kit from Molecular Devices (Molecular Devices LLC, München, Germany) at 37 °C. The 1000 × stock solutions of the test compounds were prepared in DMSO. 100 µl solution of test compound in Tyrode's solution containing FLIPR Calcium 6 dye was incubated for 2 hours at 37°C and 5% COz in a humidified incubator. The time courses were recorded in each well. Fluorescence was evoked at 485 nm excitation wavelength and read out in a bottom-read mode at 525 nm. Data were recorded every 2 s, exposure - 20 flashes, excitation bandwidth - 10 nm, emission bandwidth - 15 nm. To initiate Ca^2+ influx, 25 µl of 50 mM caffeine solution in Tyrode's solution containing 2 mM CaCl2 was injected in each well (speed 100 µl/s) at 10 s time point, resulting in 10 mM final concentration in the well. The differences between the caffeine induced peak minus basal fluorescence, ΔFCaff, were taken for the analysis. The Tyrode's solution + 0.1 v/v% DMSO was used as a control. The dose response curves were calculated using the software package GraphPad Prism version 8.3.1. All data are presented as mean ± S.D. from 8 independent experiments. Y=Bottom + (Top-Bottom)/(1+10^((LogEC50-X)*HillSlope)) was used where HillSlope describes the steepness of the curve, Top and Bottom are plateaus in the units of the Y axis.
The SERCA2a activity of the compounds was confirmed in two orthogonal biochemical assays: caffeine-induced Ca^2+ release assay and nicotinamide adenine dinucleotide (NADH) assay on microsomal membrane vesicles from mouse heart ventricles (mouse SER) and HEK-293T cells (HEK-293 ER). The effect of caffeine-induced Ca^2+ release in HL-1 cells, immortalized mouse cardiomyocytes, treated with the cytosolic Ca^2+ indicator FLIPR Calcium 6 (Molecular Devices) was investigated.
When caffeine binds to the RyR channel, it interacts with specific amino acids of the protein, and this interaction causes conformational changes in the protein's structure [A. des Georges, O. B. Clarke, R. Zalk, Q. Yuan, K. J. Condon, R. A. Grassucci, W. A. Hendrickson, A. R. Marks, J. Frank, Structural Basis for Gating and Activation of RyR1. Cell 2016, 167, 145 - 157.e17]. This opens the RyR2 channel pore, enabling the mass release of calcium ions from the SER Ca^2+ store.

The next data set relates to HL-1 cardiac cells. Nature of the data set: CytoTox-Glo cytotoxicity assay (cell viability). The note with it: CytoTox-Glo assay in 100 µM solutions after 24 h incubation. In kind it is cell-based. As to the method:
Cell viability was assessed using CytoTox-Glo™ Cytotoxicity Assay according to the manufacturing procedure (Promega GmbH). Briefly, HL-1 cardiac cells were cultivated for 24 h in black-walled, clear-bottom 96-well micro-plates (Corning) covered with fibronectin in DMEM, containing different concentrations of the tested compound (10,000 cells/well). Luminescence of a luminogenic peptide substrate was measured before and after addition of the lysis reagent (digitonin). The viable cell contribution was determined by a subtractive method. 0.1% DMSO treated cell were taken as a control.
(§1) The membrane permeability of the derivatives was determined using cell-free transport models (PermeaPad®, innoME GmbH), and permeability rates (Pe), which are a measure of how fast a compound can cross a membrane, were established (Table 1).

A short description of data set [1]: Membrane permeability, PermeaPad plate (cell-free transport model). In kind it is in vitro ADME. As to the method:
Membrane permeability was assessed using PermeaPad® Plate according to the manufacturing procedure (innoME GmbH, Espelkamp, Germany). Briefly, 200 µl water was added into acceptor plate. 200 µl of 100 - 500 µM test compound in water was added directly to the well membranes of the donor plate. The donor plate contains a biomimetic membrane for simulating passive mass transfer through different barriers in the body. Then the donor plate was placed into the acceptor plate wells and incubated at room temperature for 24 hours in dark. To determine peak absorbance of test compounds, absorbance spectra of acceptor solutions and initial solutions for each test compound were read out. The Permeability Rate (Pe) was calculated using the formula: Pe = C × −ln(1−(ODA)/(ODE)) cm/s, [formula]
where ODA is the absorbance of acceptor solution, ODE is the absorbance of the standard solution; if the compound is able to permeabilize the membrane and fully reach equilibrium, 250 µM will be the final concentration of solution in the donor and acceptor wells. The coefficient C was calculated using the formula: C = (VD × VA)/((VD+VA) × Area × time), [formula] where VA - acceptor volume (cm^3), VD - donor volume (cm^3), membrane area 0.24 cm^2, time is 86,400 s.
as §1

“Also recorded” adds a separate entry of the source.

T1 sequence (O55143 1-998 isoform O55143-2): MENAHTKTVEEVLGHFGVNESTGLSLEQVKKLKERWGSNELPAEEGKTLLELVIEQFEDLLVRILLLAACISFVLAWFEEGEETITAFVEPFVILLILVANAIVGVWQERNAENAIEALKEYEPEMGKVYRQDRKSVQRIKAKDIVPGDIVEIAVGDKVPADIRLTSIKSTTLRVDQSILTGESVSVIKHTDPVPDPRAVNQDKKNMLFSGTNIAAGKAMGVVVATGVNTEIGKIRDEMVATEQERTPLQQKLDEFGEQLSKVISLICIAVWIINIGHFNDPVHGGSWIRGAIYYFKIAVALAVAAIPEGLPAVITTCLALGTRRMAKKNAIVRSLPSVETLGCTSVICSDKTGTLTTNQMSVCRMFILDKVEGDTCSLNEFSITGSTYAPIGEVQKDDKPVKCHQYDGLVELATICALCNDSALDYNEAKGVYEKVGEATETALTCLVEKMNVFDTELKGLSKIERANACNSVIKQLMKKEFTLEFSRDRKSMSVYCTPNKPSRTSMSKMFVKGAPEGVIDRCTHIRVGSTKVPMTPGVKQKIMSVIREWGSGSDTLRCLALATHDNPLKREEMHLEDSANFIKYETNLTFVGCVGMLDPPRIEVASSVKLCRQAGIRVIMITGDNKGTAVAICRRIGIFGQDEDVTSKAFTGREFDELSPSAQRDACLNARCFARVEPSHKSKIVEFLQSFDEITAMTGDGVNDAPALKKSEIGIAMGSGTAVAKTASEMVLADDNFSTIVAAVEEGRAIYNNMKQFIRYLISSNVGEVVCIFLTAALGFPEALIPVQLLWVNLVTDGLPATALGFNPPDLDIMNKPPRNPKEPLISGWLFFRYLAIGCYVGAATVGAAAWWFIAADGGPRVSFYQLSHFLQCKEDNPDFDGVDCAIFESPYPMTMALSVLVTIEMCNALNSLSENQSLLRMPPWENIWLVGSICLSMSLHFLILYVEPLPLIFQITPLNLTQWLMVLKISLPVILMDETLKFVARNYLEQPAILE

Consider `COc1ccc2c(c1)CN(C)CCS2` [Compound S107, reference compound], for which the “SERCA2a HL-1 effect class” value at SERCA2a (10 µM in caffeine assay) is on record as “-”. For the same molecule, the “effect in caffeine-induced Ca^2+ release assay, in words” value at SERCA2a (HL-1 cells incubated 2 h with compound, 10 mM caffeine) was “no concentration dependent effect; also recorded: didn't show any effects on SR Ca^2+ content”. This molecule also displayed a Viability in the data set on HL-1 cardiac cells of 98%. Further, the “Pe rating in words (low / medium / high; poor)” value in data set [1] was “medium”. In addition, the Pe in data set [1] (permeability rate, room temperature, 24 hours) is given as 1.2 10^-6 cm/s.
